# Assay results: patent publication US5278148A (Hoffmann-La Roche Inc., priority 1989, dated 1994)
# Target: T1, human renin (Homo sapiens, UniProt P00797)
# T1 sequence (P00797 67-406): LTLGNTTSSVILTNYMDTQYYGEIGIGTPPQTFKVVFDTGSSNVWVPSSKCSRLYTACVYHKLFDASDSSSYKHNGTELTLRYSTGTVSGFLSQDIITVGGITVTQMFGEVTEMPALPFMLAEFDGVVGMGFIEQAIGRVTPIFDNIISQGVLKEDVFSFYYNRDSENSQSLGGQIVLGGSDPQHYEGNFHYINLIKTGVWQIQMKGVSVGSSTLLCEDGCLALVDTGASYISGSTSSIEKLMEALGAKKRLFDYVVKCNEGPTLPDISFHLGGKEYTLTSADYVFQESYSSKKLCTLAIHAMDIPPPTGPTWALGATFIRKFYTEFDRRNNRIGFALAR
# Assay: In vitro test with pure human renin
# Format: biochemical
# Conditions: human tetradecapeptide renin substrate (hTD), pH 7.4, incubated three hours at 37° C. or 4° C., angiotensin I via RIA
# Procedure: In Vitro Test with Pure Human Renin
# The test is carried out in Eppendorf test tubes. The incubation mixture consists of (1) 100 μl of human renin in buffer A (0.1M sodium phosphate solution, pH 7.4, 0.1% bovine serum albumin, 0.1% sodium azide and 1 mM ethylenediaminetetraacetic acid), sufficient for a renin activity of 2-3 ng of angiotensin I/ml/hr.; (2) 145 μl of buffer A; (3) 30 μl of 10 μm human tetradecapeptide renin substrate (hTD) in 10 mM hydrochloric acid; (4) 15 μl of dimethyl sulfoxide with or without inhibitor and (5) 10 μl of a 0.03 molar solution of hydroxy- quinoline sulfate in water.
# The samples are incubated for three hours at 37° C. or 4° C. in triplicate. 2×100 μl samples per experimental test tube are used in order to measure the production of angiotensin I via RIA (standard radioimmunoassay; clinincal assay solid phase kit). Cross reactivities of the antibody used in the RIA are: angiotensin I 100%; angiotensin II 0.0013%; hTD (angiotensin I-Val-Ile-His-Ser-OH) 0.09%. The production of angiotensin I is determined by the difference between the experiment at 37° C. and that at 4° C.
# The following controls are carried out:
# (a) Incubation of hTD samples without renin and without inhibitor at 37° C. and 4° C. The difference between these two values gives the base value of angiotensin I production.
# (b) Incubation of hTD samples with renin, but without inhibitor at 37° C. and 4° C. The difference between these values gives the maximal value of angiotensin I production.
# In each sample the base value of angiotensin I production is substracted from the angiotensin I production which is determined. The difference between the maximal value and the base value gives the value of the maximal substrate hydrolysis (=100%) by renin.
# The results are given as IC50 values which denote that concentration of the inhibitor at which the enzymatic activity is inhibited by 50%. The IC50 values are determined from a linear regression curve from a logit-log plot.
row,IC50 [nM],Compound
1,19,"CN(C[C@H](O)[C@H](CC1CCCCC1)NC(=O)[C@H](Cc1c[nH]cn1)NC(=O)[C@@H](CC(=O)C(C)(C)C)Cc1ccccc1)C(=O)[C@H](Cc1c[nH]cn1)NC(=O)CCc1ccccc1 [D, (S)-N-[(1S,2S)-1-(Cyclohexylmethyl)-2-hydroxy-3-[(S)-3-(imidazol-4-yl)-2-hydrocinnamamido-N-methylpropionamido]propyl]-α-[(R)-α-(3,3-dimethyl-2-oxobutyl)hydrocinnamamido]imidazole-4-propionamide]"
2,41,"CC(C)(C)C(=O)C[C@@H](Cc1ccccc1)C(=O)N[C@@H](Cc1c[nH]cn1)C(=O)N[C@@H](CC1CCCCC1)[C@@H](O)CN1CCCCC1=O [A, (S)-N-[(1S,2S)-1-(Cyclohexylmethyl)-2-hydroxy-3-(2oxopiperidino)propyl]-α-[(R)-α-(3,3-dimethyl-2-oxobutyl)hydrocinnamamido]imidazole-4-propionamide]"
3,28,CN(C[C@H](O)[C@H](CC1CCCCC1)NC(=O)[C@H](Cc1c[nH]cn1)NC(=O)[C@@H](CC(=O)C(C)(C)C)Cc1ccccc1)C(=O)[C@H](Cc1c[nH]cn1)NC(=O)[C@@H](CC(=O)C(C)(C)C)Cc1ccccc1 [C]
4,30,CN(C[C@H](O)[C@H](CC1CCCCC1)NC(=O)[C@H](Cc1c[nH]cn1)NC(=O)[C@H](Cc1ccccc1)NC(=O)OC(C)(C)C)C(=O)[C@H](Cc1c[nH]cn1)NC(=O)[C@H](Cc1ccccc1)NC(=O)OC(C)(C)C [E]
5,20,"CC(C)(C)C(=O)C[C@@H](Cc1ccccc1)C(=O)N[C@@H](Cc1c[nH]cn1)C(=O)N[C@@H](CC1CCCCC1)[C@@H](O)CN1C(=O)c2ccccc2C1=O [G, (S)-N-[(1S,2S)-1-(Cyclohexylmethyl)-2-hydroxy-3-phthalimidopropyl]-α-[(R)-α-(3,3-dimethyl-2-oxobutyl)hydrocinnamamido]imidazole-4-propionamide]"

row,Compound,IC50 [nM]
1,"(S)-N-[(1S,2S)-1-(Cyclohexylmethyl)-3-[(S)-α-[(R)-α-(3,3-dimethyl-2-oxobutyl)hydrocinnamamido]-N-isopropylimidazol-4-propionamido]-2-hydroxypropyl]-α-[(R)-α-(3,3-dimethyl-2-oxobutyl)hydrocinnamamido]imidazole-4-propionamide",41
2,"CN(C[C@H](O)[C@H](CC1CCCCC1)NC(=O)[C@H](Cc1c[nH]cn1)NC(=O)[C@H](Cc1ccccc1)NC(=O)OC(C)(C)C)C(=O)[C@H](Cc1ccccc1)NC(=O)OC(C)(C)C [F, t-Butyl [(S)-α-[[(2S,3S)-3-[(S)-2-[(S)-α-(1-t-butoxyformamido)hydrocinnamamido]-3-imidazol-4-ylpropionamido]-4-cyclohexyl-2-hydroxybutyl]methylcarbamoyl]phenethyl]carbamate]",15
